In patent US20130085469A1, “TAUROLIDINE FORMULATIONS AND DELIVERY: THERAPEUTIC TREATMENTS AND ANTIMICROBIAL PROTECTION AGAINST BACTERIAL BIOFILM FORMATION” (priority 2004, published 2013):
Read-outs that look alike come from different tables or passages of the source.

Columns and labels:
[1] = Max tolerated dose and max potential delivery; type: in vivo; settings: calculated in footnote a
Excerpt: (§1) FIG. 1 illustrates the clearance of a typical antibiotic in the blood stream. It is a typical power decay curve after drug administration. Table 3 lists important variables which determine the biocidal effect on bacteria in the blood stream. The 5 factors in the upper portion of the table define the characteristics for Vancomycin, a typical antibiotic, and the characteristics for Taurolidine. Lower in the table is the portion called Surrogate Markers. These markers are Pharmacokinetic/Pharmacodynamic (PK/PD) values calculated from the concentration profiles in the body for specifics sites and drugs to guide therapy. The derived parameters have been estimated for Vancomycin (see FIG. 1, which is average values defined in the drug label with data obtained from human trials). Taurolidine Markers have been obtained from various literature sources. The Markers are useful in predicting antimicrobial drug efficacy in infection eradication. Of course, the values of the PK/PD parameters must be for the specific bacteria causing the infection and for the specific body site.

bacteria [2] = settings: cited from earlier work
[3] = cited from earlier work
typical bacteria [4] = experiment: Minimum bactericidal concentration (MBC); type: cell-based
[5] = Pharmacokinetics, central blood values after IV dose; type: in vivo; settings: human, corresponds to first time constant 0.3
Excerpt: as §1
Kinetic parameters from Steinbach et al.^28 and infusion data from Willatts et al.^27 were used for the calculation. Taurolidine diffuses rapidly and body water concentration is equivalent to the plasma water concentration. […]

[6] = Diffusion through silicone rubber catheter wall; type: physicochemical; settings: silicone rubber 2 mm ID, 0.5 mm wall, filled with water, 2% Taurolidine bath, UV-Vis
Method: 4. Taurolidine is a small molecule able to pass through human skin as well as through polymeric materials passively by diffusion which is driven by a concentration gradient. Experiments were conducted to determine if Taurolidine is able to diffuse through silicone rubber at a rate sufficient to achieve clinical significance. The experiment was conducted with a HD catheter-sized silicone rubber (i.e., 2 mm ID and 0.5 mm wall thickness). This was filled with water and capped off. It was immersed in a 2% Taurolidine bath. Within 3 days the inner volume equilibrated with the Taurolidine bath. The sensing instrument was a UV-Vis spectrometer.

typical bacteria [7] = settings: cited from earlier work
[8] = system: Planktonic form of bacteria; settings: cited from earlier work
[9] = cited from earlier work; remark: listed apart in the source
[10] = in vivo; cited from earlier work
[11] = system: infection from HD catheters; settings: 2 controlled studies; cited from earlier work
[12] = system: resistant Burkholderia cepacia; settings: isolates from adult cystic fibrosis patients; cited from earlier work
Burkholderia cepacia = settings: delivered to the lung via a nebulizer; cited from earlier work
[13] = 30 g/day infused; cited from earlier work
[14] = over several years at room temperature; cited from earlier work
[15] = system: clinically significant bacterial strains and some important fungi; settings: published test results; cited from earlier work
bacteria [16] = settings: 25 years of clinical use and many in-vitro tests; cited from earlier work

## CN[C@H](CC(C)C)C(=O)N[C@H]1C(=O)N[C@@H](CC(N)=O)C(=O)N[C@H]2C(=O)N[C@H]3C(=O)N[C@H](C(=O)N[C@H](C(=O)O)c4cc(O)cc(O)c4-c4cc3ccc4O)[C@H](O)c3ccc(c(Cl)c3)Oc3cc2cc(c3O[C@@H]2O[C@H](CO)[C@@H](O)[C@H](O)[C@H]2O[C@H]2C[C@](C)(N)[C@H](O)[C@H](C)O2)Oc2ccc(cc2Cl)[C@H]1O [Vancomycin]
[1]
  Max Tolerated Dose: >5 g/day (See footnote a)
Bacteria [2]
  MIC (Minimum Inhibitory Concentration): <4 μg/mL^29
[3]; average values from drug label, FIG. 1
  Peak Plasma Concentration (CP): 50 µg/mL
[3]
  T1/2 (Drug Half Life in Blood): ~7 hours^30

## O=S1(=O)CCN(CN2CCS(=O)(=O)NC2)CN1 [Taurolidine, 4,4′ Methlyen-bis(tetrahydro-2H-1,4-thiadiazin-1,1dioxide)]
Typical bacteria [4]
  MBC relative to antibiotics: Taurolidine has an approximate 1000 times higher
[5]
  half-life: ~2.3 h
[6]
  time for inner volume to equilibrate with the Taurolidine bath: ≤ 3 days
Bacteria [2]
  concentration needed to show minimum effectiveness: > 0.05%
  lower end range for MIC: approximately 0.5 mg/mL
Typical bacteria [7]
  MBC: MBC than antibiotics. (i.e., MBC of 2 mg/ml vs. 2 ug/ml
[8]
  exposure to achieve killing action: Planktonic form of bacteria requires approximately 2 hours
[3]; cell adds: Not applicable for Taurolidine
  Peak Plasma Concentration (CP): 150 μg/ml^28
[3]; first value of 70/140, footnote b, time const 0.57
  T1/2 (Drug Half Life in Blood): ~70 min
[3]; second value of 70/140, footnote b, first time constant 0.3
  T1/2 (Drug Half Life in Blood): ~140 min
[9]
  Max Tolerated Dose: >30 g/day^27
[10]
  concentration producing pain in most tissue on contact: ≥ 10000 µg/mL
  pain on direct contact with most tissue: Direct contact with most tissue causes intense pain
[11]
  reduction in infection compared to conventional heparin lock: ~2 controlled studies resulted in approximately 95%
[12]
  in vitro response: positive response
Burkholderia cepacia
  reduction in bacterial load: failure to achieve a significant reduction in bacterial load in most patients
[13]
  benefit of Taurolidine infusion in sepsis syndrome: No benefits
  decremental effect of Taurolidine infusion: not shown any statistically significant decremental effect
[14]
  stability in powder or aqueous solution: Taurolidine in powder or aqueous solution is stable
[15]
  broad spectrum antimicrobial effect: Effective against substantially all clinically significant
Bacteria [16]
  bacterial resistance: 1. No Bacterial Resistance
